PMC6934184, “Selective DNA-PKcs inhibition extends the therapeutic index of localized radiotherapy and chemotherapy” (The Journal of Clinical Investigation, 2019)

Target: T1, MLCK (MLCK2) (Homo sapiens, UniProt Q32MK0)
T1 construct: purchased Thermo Fisher Scientific (Life Technologies) SelectScreen
Assay: SelectScreen LanthaScreen
Format: binding
Conditions: read-out: % displacement
In short: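 SelectScreen broad panel; activity (Z'LYTE, Adapta) plus binding formats. ATP: Km app for CSF1R Z'LYTE; 10 for CAMK1 Adapta. Readout = % per kinase.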

T1 sequence (Q32MK0 whole entry): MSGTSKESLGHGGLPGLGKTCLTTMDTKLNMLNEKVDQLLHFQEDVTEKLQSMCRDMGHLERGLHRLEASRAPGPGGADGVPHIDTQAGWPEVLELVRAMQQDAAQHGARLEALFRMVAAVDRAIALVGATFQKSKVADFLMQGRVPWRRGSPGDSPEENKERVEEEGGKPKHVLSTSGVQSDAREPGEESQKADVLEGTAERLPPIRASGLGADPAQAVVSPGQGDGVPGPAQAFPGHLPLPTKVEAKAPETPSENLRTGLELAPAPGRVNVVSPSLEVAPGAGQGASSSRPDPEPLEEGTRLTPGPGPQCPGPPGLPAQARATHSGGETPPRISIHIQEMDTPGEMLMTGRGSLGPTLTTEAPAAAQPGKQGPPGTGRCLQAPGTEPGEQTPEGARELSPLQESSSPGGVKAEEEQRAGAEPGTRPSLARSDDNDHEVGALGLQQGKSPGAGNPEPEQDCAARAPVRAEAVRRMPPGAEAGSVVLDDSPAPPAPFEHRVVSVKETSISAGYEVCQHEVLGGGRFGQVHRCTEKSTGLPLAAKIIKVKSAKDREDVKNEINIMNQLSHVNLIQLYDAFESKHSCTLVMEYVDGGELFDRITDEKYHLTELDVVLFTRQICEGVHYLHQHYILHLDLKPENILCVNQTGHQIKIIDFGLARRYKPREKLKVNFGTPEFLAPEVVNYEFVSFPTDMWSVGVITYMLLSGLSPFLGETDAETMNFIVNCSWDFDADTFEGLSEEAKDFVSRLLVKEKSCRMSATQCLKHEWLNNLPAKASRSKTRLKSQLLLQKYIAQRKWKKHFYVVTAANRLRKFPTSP

`CN(C(=O)CN1CCOCC1)c1ccc2sc3c(-c4cccc5c(=O)cc(N6CC7CCC(C6)O7)oc45)cccc3c2c1` [NU5455] was tested, and the inhibition at 1 µM was 1.5%.
